Results published in patent US11426441B2, “Composition comprising protein phosphatase 1 inhibitory peptide for treating vascular diseases” (BethphaGen Inc., priority 2016, dated 2022).
No end group written: not given here.

What was measured:
[1] = tested on: rat aortic smooth muscle cells (RASMCs); test: RASMC proliferation (PCNA immunostaining, EZ-CyTox cell viability assay); type: cell-based; conditions: synthetic conditions (10% FBS), 3 μM peptide
Experimental: The rat aortic smooth muscle cells (RASMCs) were isolated from the medial layer of the thoracic aorta derived from male Sprague-Dawley rats (body weight, 180-200 g) by an enzymatic reaction with collagenase (50 U/mL, Worthington) and pancreatic elastase (0.25 mg/mL, Sigma-Aldrich) for 4 hours at 37. The cells were collected and resuspended in DMEM containing 20% (v/v) fetal bovine serum. The resuspension was then plated on collagen I (Sigma-Aldrich)-coated glass coverslips and incubated at 37 in an atmosphere of 5% (v/v) CO2 and 95% (v/v) air. Human coronary smooth muscle cells (HCSMCs), pulmonary arterial endothelial cells (PAECs), and pulmonary arterial smooth muscle cells (PASMCs) were purchased from Lonza and cultured in EBM or SmBM (Lonza) supplemented with 0.5 mg/mL hEGF, […], 1 mg/mL hFGF, […] gentamicin/amphotericin-B, and 5% fetal bovine serum. All the cells were cultured at 37 in 5% (v/v) CO2 and 95% (v/v) air. RASMCs and HCSMCs were, respectively, plated at the densities of 1×10^4 cells/cm^2 and 1×10^5 cells/cm^2 for immunostaining and western blotting experiments. For RASMC and PASMC cell proliferation experiments, these cells were cultured in fetal bovine serum-free media for 3 days, and then proliferation was induced by serum addition.
Rat aortic smooth muscle cells (RASMCs) were fixed in 4% (w/v) paraformaldehyde at room temperature for 10 min, washed with PBS, and then transmitted with 0.1% (v/v) Triton X-100 in PBS for 40 min. After washing and blocking with 3% (w/v) BSA in PBS, the cells were incubated overnight at room temperature with antibodies against SERCA2a (1:250), SERCA2b (1:250), and PCNA (1:50). On the following day, the cells were washed with PBS and incubated with anti-rabbit and anti-mouse IgG conjugated to Alexa Fluor 488 and 594, respectively, for 1 hour at room temperature. The cells were treated with FluoroGuard antifade reagent (Bio-Rad, Hercules, Calif., USA), and the coverslips were examined under a fluorescent microscope. […]

SERCA2a = SERCA2a level and stability in RASMCs (immunostaining, western blotting); type: cell-based, rat; conditions: synthetic conditions, 3 μM peptide
Experimental: Rat aortic smooth muscle cells (RASMCs) were fixed in 4% (w/v) paraformaldehyde at room temperature for 10 min, washed with PBS, and then transmitted with 0.1% (v/v) Triton X-100 in PBS for 40 min. After washing and blocking with 3% (w/v) BSA in PBS, the cells were incubated overnight at room temperature with antibodies against SERCA2a (1:250), SERCA2b (1:250), and PCNA (1:50). On the following day, the cells were washed with PBS and incubated with anti-rabbit and anti-mouse IgG conjugated to Alexa Fluor 488 and 594, respectively, for 1 hour at room temperature. The cells were treated with FluoroGuard antifade reagent (Bio-Rad, Hercules, Calif., USA), and the coverslips were examined under a fluorescent microscope.
(§1) Vascular smooth muscle cells (VSMCs) were homogenized in a minimal volume of 50 mM Tris-HCl, pH 7.4, supplemented with a broad-spectrum protease inhibitor cocktail (Calbiochem). The proteins were separated by SDS-PAGE and then transferred to polyvinylidene fluoride membranes (Schleicher & Schuell). After blocking with 5% (w/v) non-fat milk for 1 hour and washing with TBST, the membranes were incubated with antibodies against SERCA2a, SERCA2b (21st century biochemical), PCNA (abcam), GAPDH (Sigma-Aldrich), phospho-eNOS, eNOS, phospho-eIF2α, eIF2α (cell signaling), Vimentin, α-SMA, BMPR2 (Santa cruz), phospho-Akt, Akt (cell signaling), phospho-phospholamban (Merck), and Phospholamban (cell signaling). The membranes were then incubated with horseradish peroxidase-conjugated secondary antibodies (Jackson ImmunoResearch, West Grove, Pa., USA) and developed using a chemiluminescent substrate (Dogen). The blots were scanned and quantified using LAS software.
RASMCs were cultured in DMEM supplemented with 0.1% (v/v) FBS (Contractile) or in DMEM supplemented with 10% (v/v) FBS (Synthetic) in the presence of 3 μM control or ψPLB-SE peptide. Cycloheximide (Sigma) was added to media to a final concentration of 5 μg/ml. Cells were harvested after 0, 3, and 5 days of incubation and their protein extracts were subjected to western blotting.

cytosolic Ca^2+ level = test: Intracellular Ca2+ measurement in HCSMCs; type: cell-based, human; conditions: HCSMCs pretreated 1 hour with 3 μM ψPLB-SE or 15 μM MDL28170, then 50 μM A23187 2 hours
Experimental: FIGS. 4a, 4b, 4c and 4d. (4a-4c) HCSMCs were pretreated with 3 μM ψPLB-SE and 15 μM MDL28170 for 1 hour, and then treated with 50 μM A23187 for 2 hours. (4a) Immunostaining was performed with antibodies against SERCA2a and SERCA2b (green). Nuclei were stained with Hoechst (blue). Representative merged images are shown. Scale bar, 50 μm. (4b) Western blot analysis was performed with cell extracts. Data are expressed as the means±SD (n=3-4; *, P<0.05). (4c) Baseline Ca^2+ concentration was measured by lonOptix calcium imaging system. (4d) RASMC were treated with ψPLB-SE or control peptide under the same conditions as described for FIG. 1B. The baseline Ca^2+ concentration was measured by lonOptix calcium imaging system (*, P<0.05).
The intracellular Ca^2+ level was measured in VSMCs by loading cells with 0.5 μM Fura2-AM (Molecular Probes, Eugene Oreg., USA), a Ca^2+-sensitive indicator, for 15 minutes at 37. The fluorescence was recorded using the lonOptix calcium imaging system. VSMCs were stimulated by the exposure to light emitted by a 75 W halogen lamp through either a 340 nm or 380 nm filter. The fluorescent emissions were detected between 480 nm and 520 nm by a photomultiplier tube after an initial illumination at 340 nm for 0.5 second and then at 380 nm during recording. The 340 nm excitation scan was repeated at the end of the protocol, and qualitative changes in the intracellular Ca^2+ level were inferred from the ratio of the Fura2 fluorescent intensity at both wavelengths.

phospholamban = test: PLB phosphorylation in PASMCs (western blotting); type: cell-based; conditions: synthetic phenotype, 3 μM
Experimental: PASMCs were incubated in DMEM supplemented with 0.1% (v/v) FBS for 3 days to induce a contractile phenotype, followed by incubation in DMEM supplemented with 10% (v/v) FBS for 3 days to induce a synthetic phenotype in the presence of 3 μM ψPLB-SE. (18a) Protein expression was quantitatively analyzed through western blotting using antibodies against phospho-PLB (ser16), total PLB, and GAPDH. Data are expressed as the means±SD (n=3˜4; *, P<0.05 vs contractile; #, P<0.05 vs Synthetic-con).
Human coronary smooth muscle cells (HCSMCs), pulmonary arterial endothelial cells (PAECs), and pulmonary arterial smooth muscle cells (PASMCs) were purchased from Lonza and cultured in EBM or SmBM (Lonza) supplemented with 0.5 mg/mL hEGF, 5 mg/mL insulin, 1 mg/mL hFGF, 50 mg/mL gentamicin/amphotericin-B, and 5% fetal bovine serum. All the cells were cultured at 37 in 5% (v/v) CO2 and 95% (v/v) air. RASMCs and HCSMCs were, respectively, plated at the densities of 1×10^4 cells/cm^2 and 1×10^5 cells/cm^2 for immunostaining and western blotting experiments.
Vascular smooth muscle cells (VSMCs) were homogenized in a minimal volume of 50 mM Tris-HCl, pH 7.4, supplemented with a broad-spectrum protease inhibitor cocktail (Calbiochem). […] The blots were scanned and quantified using LAS software.

PLB = PLB phosphorylation in RASMCs (western blotting); type: cell-based, rat
Experimental: FIG. 7. ψPLB-SE attenuates PLB dephosphorylation in VSMCs. The proteins samples shown in FIG. 2C were subjected to western blotting. Antibodies against PLB or phospho-PLB were used. Data are expressed as the means±SD (n=3-4; *, P<0.05).
as §1

RAETIEMPQ (not fully specified) [ψPLB-SE, 9-mer PP1 decoy peptide mimicking phosphorylated PLB; conjugated via GGG linker to cell penetrating peptide dNP2 or TAT]
PCNA expression (active cell division) ([1]; RASMCs): completely blocked | increased proliferation of RASMCs (cell proliferation assay) ([1]; 24 hours): inhibited | SERCA2a reduction (immunostaining) (SERCA2a): completely inhibited | reduction of SERCA2a (western blotting) (SERCA2a): inhibited | stability of SERCA2a (SERCA2a; cycloheximide 5 μg/ml): restored nearly to the level observed under contractile conditions | elevation of the cytosolic Ca^2+ level by A23187 (cytosolic Ca^2+ level): normalized | phosphorylation of the serine 16 residue of phospholamban (phospholamban): restored | dephosphorylation of PLB (PLB): inhibited
